SMILES strings stand for the structures. Read-outs that look alike come from different tables or passages of the source.

37 molecules from patent publication US9868734B2, “Conjugate of benzofuranone and indole or azaindole, and preparation and uses thereof” (Luoda Biosciences, Inc., priority 2013, dated 2018) can be followed below.

Experiment [1] deals with human lung adenocarcinoma epithelial cell line A549. Nature of the experiment: MTT assay, inhibition of tumor cell growth (A549). It is filed as cell-based. Particulars: 72 hours incubation, read-out: IC50 on the tumor cells A549. On the procedure: (§1) human hepatocellular carcinoma cell line HepG-2, human lung adenocarcinoma epithelial cell line A549
(§2) Tumor cells were seeded in RPM11640 medium containing 10% calf serum, incubated at 37° C., 5% CO2 in CO2 incubator, and passaged every 2-3 days. Cells at logarithmic growth phase were used for this experiment.
(§3) The cells at logarithmic growth phase were formulated into suspension. The cell viability by trypan blue staining was more than 98%. The cell suspension was divided into several groups: 1 as blank control group (cell suspension plus solvent DMSO); and 2 as experimental groups (cell suspension plus compounds to be tested).
(§4) The drugs were formulated into a stock solution in DMSO, and the concentration of the stock solution was 20 mmol (used within 4 hours). In the experiment, the work solution of the drugs was diluted with RPMI1640 medium containing 10% calf serum under aseptic condition, to a final concentration of […]. The drug concentrations were increased by 2 times (1.25-20 μM).
(§5) The cells in logarithmic growth phase were selected, centrifuged, counted, and formulated into a cell suspension (2.5×10^4/ml) with RPMI1640 medium containing 10% calf serum. The cell suspension were inoculated into 96-well plates at a density of 5000 cells/200 μl per well, incubated for 24 hours at 37° C., 5% CO2. According to the above concentration of the drug, the cells were inoculated to 6 groups (including one control group), with 8 wells per group. After incubating for 72 hours, the viability of cells was measured by MTT assay. The absorbance value (A) was measured with detection wavelength at 540 nm, reference wavelength at 630 nm. The inhibitory rate (I) was calculated by the following equation, where T was the absorbance value of the experimental groups, and C was the absorbance value of the blank control group: I=(1−T/C)×100%
(§6) Equation of regression line was drawn from concentration-inhibitory rate curve, from which the IC50 of tested sample was calculated.

Experiment [2] has as its system human hepatocellular carcinoma cell line HepG-2. Nature of the experiment: MTT assay, inhibition of tumor cell growth (HepG2). It is filed as cell-based. Particulars: 72 hours incubation, read-out: IC50 on the tumor cells HepG2. On the procedure: as §1, §2, §3, §4, §5, §6

What is called IC50 is the midpoint of a concentration-inhibition curve. On to `CON=C1C(=C2C(=O)N(Cc3ccccc3)c3ccccc32)Oc2ccccc21` [Compound 56, N1-benzyl-1′-oxo-indirubin-3′-oxime ether], for which the IC50 in experiment [1] came out at 7.1 ± 1.1 µM; in experiment [2], 2.7 ± 1.2 µM.
As to `CON=C1C(=C2C(=O)N(Cc3ccccc3)c3ccc(F)cc32)Oc2ccccc21` [Compound 57], the figures for the IC50 in experiment [1] and in experiment [2] were 6.9 ± 0.8 µM and 3.1 ± 0.8 µM, respectively.
As for `CON=C1C(=C2C(=O)N(Cc3ccccc3)c3ccc(Cl)cc32)Oc2ccccc21` [Compound 58], the IC50 in experiment [1] was 12.1 ± 0.9 µM; in experiment [2], 3.8 ± 1.5 µM.
Consider `CCN1C(=O)C(=C2Oc3ccccc3C2=NOC)c2cc(F)ccc21` [Compound 59], for which the figures for the IC50 in experiment [1] and in experiment [2] were 5 ± 0.9 µM and 3.7 ± 0.9 µM, respectively.
In the same order, the values of `CON=C1C(=C2C(=O)N(C(C)C)c3cc(Cl)ccc32)Oc2ccc(Cl)cc21` [Compound 60] are 29 ± 1.8 µM and 5.4 ± 0.6 µM.
Taken in the same sequence, the figures for `CN1C(=O)C(=C2Oc3ccccc3C2=O)c2cnccc21` [Compound 62] were 9.5 ± 2.1 µM and 11.5 ± 1 µM.
Taken in the same sequence, the figures for `CCN1C(=O)C(=C2Oc3ccccc3C2=O)c2c1ccnc2C` [Compound 65] were 18.5 ± 1.8 µM and 40 ± 3.1 µM.
With `CC(C)N1C(=O)C(=C2Oc3ccccc3C2=O)c2cnccc21` [Compound 66], the half-maximal inhibitory concentration (IC50) in experiment [1] was 7.4 ± 1.7 µM; in experiment [2], 1.8 ± 0.6 µM.
On to `Cc1nccc2c1C(=C1Oc3ccccc3C1=O)C(=O)N2C(C)C` [Compound 68], for which the results for the half-inhibitory concentration (IC50) in experiment [1] and in experiment [2] were 14 ± 1.7 µM and 18.5 ± 1.8 µM, respectively.
In the same order, the values of `CCCCN1C(=O)C(=C2Oc3ccccc3C2=O)c2cncc(F)c21` [Compound 70] are 4.5 ± 0.6 µM and 3.6 ± 0.4 µM.
Taken in the same sequence, the figures for `CON=C1C(=C2C(=O)N(Cc3ccccc3)c3ccncc32)Oc2ccccc21` [Compound 74] were 9.4 ± 0.6 µM and 19 ± 1.1 µM.
With `O=C1Nc2ncccc2/C1=C1/Oc2ccccc2C1=O` [Compound 75, 1′-oxo-7-azaindirubin], the results for the IC50 in experiment [1] (Homo sapiens) and in experiment [2] (Homo sapiens) were 8 ± 1.2 µM and 10 ± 1.4 µM, respectively.
For `CCN1C(=O)C(=C2Oc3c(Cl)cccc3C2=O)c2cccnc21` [Compound 79], the figures for the IC50 in experiment [1] and in experiment [2] were 17.4 ± 1.7 µM and 31.5 ± 2.5 µM, respectively.
Taken in the same sequence, the figures for `CC(C)N1C(=O)C(=C2Oc3ccccc3C2=O)c2cc(Cl)cnc21` [Compound 82] were 16 ± 2 µM and 18 ± 2.3 µM.
Taken in the same sequence, the figures for `CCN1C(=O)C(=C2Oc3c(Cl)cccc3C2=O)c2cccnc21` [Compound 85] were 25 ± 2.7 µM and 18.5 ± 1.5 µM.
With `CC(C)N1C(=O)C(=C2Oc3ccccc3C2=NO)c2cc(Cl)cnc21` [Compound 88], the IC50 in experiment [1] was 87 ± 2.1 µM; in experiment [2], 80.1 ± 1.5 µM.
Taken in the same sequence, the figures for `CON=C1C(=C2C(=O)N(Cc3ccccc3)c3ncccc32)Oc2ccccc21` [Compound 90] were 29 ± 1.8 µM and 30.2 ± 1.5 µM.
With `O=C1Nc2ccc(F)cc2C1=C1C(=O)Oc2ccccc21` [Compound 92], the IC50 in experiment [1] turned out to be 31.7 ± 1.5 µM; in experiment [2] it was 15.2 ± 1.2 µM.
On to `CN1C(=O)C(=C2C(=O)Oc3ccccc32)c2ccc(Cl)cc21` [Compound 96], for which the results for the concentration for half-maximal inhibition (IC50) in experiment [1] and in experiment [2] were 17.2 ± 1.6 µM and 14.2 ± 1.3 µM, respectively.
Consider `CCN1C(=O)C(=C2C(=O)Oc3ccccc32)c2ccccc21` [Compound 100], for which the values for the IC50 in experiment [1] and in experiment [2] were 7 ± 1.4 µM and 9.2 ± 2 µM, respectively.
In the same order, the values of `CC(C)N1C(=O)C(=C2C(=O)Oc3ccccc32)c2ccccc21` [Compound 106] are 35.5 ± 2.9 µM and 3.8 ± 1.5 µM.
Taken in the same sequence, the figures for `O=C1Oc2ccccc2C1=C1C(=O)N(C2OC(CO)C(O)C(O)C2O)c2ccccc21` (centres unmarked) [Compound 112] were 90.1 ± 4.5 µM and above 100 µM.
In the case of `COc1ccc2c(c1)C(=C1C(=O)N(Cc3ccccc3)c3ccccc31)C(=O)O2` [Compound 116], the IC50 was determined as 3.7 ± 0.6 µM in experiment [1] and 7.4 ± 1.7 µM in experiment [2].
In the same order, the values of `O=C1Oc2ccccc2C1=C1C(=O)N(Cc2ccccc2)c2ccc(Cl)cc21` [Compound 119] are 39.6 ± 1.7 µM and 27.5 ± 1.3 µM.
In the same order, the values of `O=C1Oc2ccccc2C1=C1C(=O)N(Cc2ccccc2)c2cc(Cl)ccc21` [Compound 120] are 49.1 ± 2.6 µM and 43 ± 2.2 µM.
Taken in the same sequence, the figures for `O=C1Nc2ccncc2C1=C1C(=O)Oc2ccccc21` [Compound 121] were 11.6 ± 1.1 µM and 15.6 ± 1.2 µM.
For the molecule `CN1C(=O)C(=C2C(=O)Oc3ccccc32)c2cnccc21` [Compound 123], the half-maximal inhibitory concentration (IC50) in experiment [1] was found to be 5.8 ± 0.8 µM; in experiment [2], 9.1 ± 1 µM.
Taken in the same sequence, the figures for `CCN1C(=O)C(=C2C(=O)Oc3ccccc32)c2cnccc21` [Compound 127, N-ethyl-1′-oxo-5-azaisoindigo] were 4.7 ± 0.9 µM and 8.4 ± 1.3 µM.
Taken in the same sequence, the figures for `CC(C)N1C(=O)C(=C2C(=O)Oc3ccccc32)c2cnc(F)cc21` [Compound 130] were 28.5 ± 1.6 µM and 19.6 ± 1.3 µM.
On to `O=C1Oc2ccccc2C1=C1C(=O)N(Cc2ccccc2)c2ccncc21` [Compound 134], for which the IC50 in experiment [1] was 11.5 ± 1.2 µM; in experiment [2], 26 ± 2.1 µM.
Taken in the same sequence, the figures for `O=C1Nc2nc(Cl)ccc2C1=C1C(=O)Oc2ccccc21` [Compound 138] were 12.1 ± 1.4 µM and 25.8 ± 1.7 µM.
For the molecule `Cc1cccc2c1OC(=O)C2=C1C(=O)N(C)c2ncccc21` [Compound 140], the IC50 stood at 1.9 ± 0.8 µM in experiment [1] and 7.3 ± 0.8 µM in experiment [2].
For the molecule `CCN1C(=O)C(=C2C(=O)Oc3ccccc32)c2cc(F)cnc21` [Compound 146], the half-maximal inhibitory concentration (IC50) amounted to 26.3 ± 2.1 µM in experiment [1] and 35.2 ± 2.3 µM in experiment [2].
Taken in the same sequence, the figures for `CC(C)N1C(=O)C(=C2C(=O)Oc3ccc(F)cc32)c2cccnc21` [Compound 150] were 7.9 ± 1.3 µM and 5.6 ± 0.6 µM.
Taken in the same sequence, the figures for `O=C1Oc2ccccc2C1=C1C(=O)N(Cc2ccccc2)c2ncccc21` [Compound 152] were 18.2 ± 1.2 µM and 42.3 ± 1.8 µM.
On to `CCN1C(=O)/C(=C2\Nc3ccccc3C2=O)c2ccccc21` [Compound 154, 1-ethyl-indirubin, reference compound], for which the IC50 in experiment [1] (Homo sapiens) worked out at 19 ± 1.1 µM; in experiment [2] (Homo sapiens), 7.1 ± 0.7 µM.
Taken in the same sequence, the figures for `CCN1C(=O)/C(=C2\Nc3ccccc3\C2=N/O)c2ccccc21` [Compound 155, 1-ethyl-indirubin-3′-oxime, reference compound] were 30.3 ± 1.5 µM and 7 ± 1.3 µM.
